Test results: patent US6544727B1, “Methods and devices for the removal of psoralens from blood products” (Cerus Corporation, priority 1995, dated 2003)
Entries after “also recorded” stand apart in the source; their conditions may differ. Read-outs that look alike come from different tables or passages of the source.

Assays:
R17 bacteriophage [1] = assay: R17 bacteriophage inactivation assay, varying compound concentration; type: cell-based; settings: for R17 inactivation efficiency compared with AMT or 8-MOP (in words): varying concentration, Tables 6-9, FIGS. 6-10
Experimental: An r-17 bacteriophage assay was used in this example to predict pathogen inactivation efficiency and to determine nucleic acid binding of the photoreactive binding compounds of the present invention. In the r-17 assay, the bacteriophage was placed in a solution with each compound tested and was then irradiated. The ability of the phage to subsequently infect bacteria and inhibit their growth was measured. The bacteriophage was selected for its relatively accessible nucleic acid such that the culture growth inhibition would accurately reflect nucleic acid damage by the test compounds. The bacteriophage assay for nucleic acid binding to test compounds offers a safe and inexpensive procedure to identify compounds likely to display efficient pathogen inactivation.
The R17 was grown up in Hfr 3000 bacteria, approximate titer 5×10^11. (R17 and Hfr 3000 were obtained from American Tissue Culture Collection (ATCC), Washington, D.C.) The R17 phage stock was added to a solution of 15% fetal bovine serum in Dulbecco's Modified Eagles Medium (DMEM) to a final phage concentration of 10^9/mL. An aliquot (0.5 mL) was transferred to a 1.5 mL snap-top polyethylene tube. An aliquot (0.004-0.040 mL) of the test compound stock solution prepared in water, ethanol or dimethylsulfoxide at 0.80-8.0 mM was added to the tube. Compounds were tested at concentrations between 4 μM and 320 μM. […] The tubes were placed in a light device as described in EXAMPLE 1 and irradiated for between 1 and 10 minutes. Sterile 13 mL dilution tubes were prepared; each test compound required one tube with 0.4 mL of Luria broth (LB) and five tubes containing 0.5 mL of LB broth. To make the dilutions, a 0.100 mL aliquot of the irradiated solution of phage and test compound was added to the first dilution tube of 0.4 mL of media then 0.020 mL of this solution was added to the second tube of 0.5 mL medium (1:25). The second solution was then diluted serially (1:25) into the remaining tubes. To each diluted sample was added 0.050 mL of Hfr 3000 bacteria cultured overnight and 3 mL of molten LB top agar and the mixed materials were poured onto LB broth plates. After the top agar hardened, the plates were incubated at 37° C. overnight. The plaque forming units were then counted the following morning and the titer of the phage remaining after phototreatment was calculated based on the dilution factors.
The following controls were run: the “phage only” in which phage was not treated with test compound and not irradiated (listed as “starting titer” in the tables below); the “UV only” in which the phage was irradiated in the absence of test compound; and the “dark” control in which the phage/test compound solution was not irradiated before it was diluted and plated.

[2] = system: Salmonella typhimurium tester strains; assay: Ames Salmonella dark mutagenicity test, overall assessment; type: cell-based; settings: two-fold or greater increase in revertants above background and dose dependence
Experimental: A brief description for each procedure is given here. […] TA97a, TA98, TA1537 and TA1538 are frameshift tester strains. TA100 and TA102 are base-substitution tester strains.
This served as the background controls.
For all experiments, the pre-incubation procedure was used.

[3] = system: Salmonella tester strain TA100
Experimental: (§1) In this example the compounds of the present invention are tested for their dark mutagenicity using an Ames assay. The procedures used for the Salmonella mutagenicity test as described in detail by Maron and Ames were followed exactly. Maron, D. M. and B. N. Ames, Mutation Research 113: 173 ( 1983). A brief description for each procedure is given here. The tester strains TA97a, TA98, TA100, TA102, TA1537 and TA1538 were obtained from Dr. Ames. TA97a, TA98, TA1537 and TA1538 are frameshift tester strains. TA100 and TA102 are base-substitution tester strains. Upon receipt each strain was cultured under a variety of conditions to confirm the genotypes specific to the strains.
(§2) The first tests done with the strains were to determine the range of spontaneous reversion for each of the strains. With each mutagenicity experiment the spontaneous reversion of the tester strains to histidine independence was measured and expressed as the number of spontaneous revertants per plate. This served as the background controls.
(§3) For all experiments, the pre-incubation procedure was used. In this procedure one vial of each tester strain was thawed and 20 μL of this culture was added to 6 mL of Oxoid Nutrient Broth #2. This solution was allowed to shake for 10 hours at 37° C. In the pre-incubation procedure, 0.1 mL of this overnight culture was added to each of the required number of sterile test tubes. To half of the tubes 0.5 mL of a 10% S-9 solution containing Aroclor 1254 induced rat liver extract (Molecular Toxicology Inc., Annapolis, Md.), and MgCl2, KCl, glucose-6-phosphate, NADP, and sodium phosphate buffer (Sigma, St. Louis, Mo.) were added. To the other half of the tubes 0.5 mL of 0.2M sodium phospate buffer, pH 7.4, was used in place of the S-9 mixture (the—S9samples). Finally 0.1 mL of the test solution containing either 0, 0.1, 0.5, 1, 5, 10, 50, 100, 250, or 500 μg/mL of the test compound was added. The 0.7 mL mixture was vortexed and then pre-incubated while shaking for 20 minutes at 37° C. After shaking, 2 mL of molten top agar supplemented with histidine and biotin were added to the 0.7 mL mixture and immediately poured onto a minimal glucose agar plate (volume of base agar was 20 mL). The top agar was allowed 30 minutes to solidify and then the plates were inverted and incubated for 44 hours at 37° C. After incubation the number of revertant colonies on each plate were counted. […] (“n” represents the number of replicates performed for each data point.)

[4] = system: Salmonella tester strain TA1538
Experimental: as §1, §2, §3

HIV-1 = settings: for HIV Log Kill: 1 minute irradiation
R17 bacteriophage [5] = assay: R17 bacteriophage inactivation at constant concentration, varying doses of UV light; type: cell-based; settings: 1.0-3.0 J/cm^2, FIGS. 11-17
Experimental: Compounds of the present invention were also tested at a constant concentration for varying doses of UV light. Three sets of 1.5 mL tubes were prepared containing 0.6mL aliquots of R17 in DMEM (prepared as described above). The compound tested was added at the desired concentration and the samples were vortexed. The samples were then irradiated at intervals of 1.0 J/cm^2, until 3.0 J/cm^2 was reached. Between each 1.0 J/cm^2 interval, 100 μL was removed from each sample and placed in the first corresponding dilution tube, then five sequential dilutions were performed for each compound tested, at all 3 irradiation doses, as described above in this example.
Then 50 μL of Hfr 3000 bacteria was added to each tube, 3 mL of top agar was added and the tube contents were vortexed The contents of each tube was poured into its own LB plate and the plates were incubated overnight at 37° C. Plaques were counted by visual inspection the following morning.

[6] = 8 μM, starting titer approx. 7.2 logs, 1 minute irradiation (Table 7)
[7] = 16 μM, starting titer approx. 7.2 logs, 1 minute irradiation (Table 7)
[8] = 32 μM, starting titer approx. 7.2 logs, 1 minute irradiation (Table 7)
[9] = Experiment 1, 32 μM compound, 1′ uva
[10] = Experiment 1, 32 μM compound, 10′ uva
[11] = Experiment 1, compound only (32 μM), no uva
[12] = Experiment 2, 3.2 μM compound, 1′ uva
[13] = Experiment 2, 3.2 μM compound, 10′ uva
[14] = Experiment 2, compound only (3.2 μM), no uva
[15] = Experiment 3, 4 μM compound, 1′ uva
[16] = Experiment 3, 8 μM compound, 1′ uva
[17] = Experiment 3, 16 μM compound, 1′ uva
[18] = Experiment 3, compound only (16 μM), no uva
[19] = 64 μM, starting titer approximately 5 logs (Table 10)
[20] = 16 μM, starting titer approximately 5.4 logs (Table 11)
[21] = 32 μM, starting titer approximately 5.4 logs (Table 11)
[22] = 64 μM, starting titer approximately 5.4 logs (Table 11)
[23] = 16 μM, starting titer approx. 7.1 logs, 1 minute irradiation = 1.2 J/cm^2 (Table 8)
[24] = 32 μM, starting titer approximately 5 logs (Table 10)

## Cc1oc2c(C)c3oc(=O)cc(C)c3cc2c1CNCCN [Compound 1, 4′-(4-amino-2-aza)butyl-4,5′,8-trimethylpsoralen]
R17 bacteriophage [1]; [6]
  R17 Log Kill: 1.7 log
R17 bacteriophage [1]; [7]
  R17 Log Kill: 2.8 log
R17 bacteriophage [1]; [8]
  R17 Log Kill: 5.3 log
R17 bacteriophage [1]; 32 μM, starting titer approx. 7.5 logs, 1 minute irradiation
  R17 log kill (32 μM): >6.6 log
R17 bacteriophage [1]; [9]
  Log Titer: <1
  Logs Killed: >6.7 logs
R17 bacteriophage [1]; [10]
  Log Titer: <1
  Logs Killed: >6.7 logs
R17 bacteriophage [1]; [11]
  Log Titer: 7.6
  Logs Killed: 0.1 logs
R17 bacteriophage [1]; [12]
  Log Titer: 6.9
  Logs Killed: 0.9 logs
R17 bacteriophage [1]; [13]
  Log Titer: 6.1
  Logs Killed: 1.7 logs
R17 bacteriophage [1]; [14]
  Log Titer: 7.7
  Logs Killed: 0.1 logs
R17 bacteriophage [1]; [15]
  Log Titer: 6.3
  Logs Killed: 1.0 logs
R17 bacteriophage [1]; [16]
  Log Titer: 5.6
  Logs Killed: 1.7 logs
R17 bacteriophage [1]; [17]
  Log Titer: 3.9
  Logs Killed: 3.4 logs
R17 bacteriophage [1]; [18]
  Log Titer: 7.3
  Logs Killed: 0 logs
R17 bacteriophage [1]
  R17 inactivation efficiency compared with AMT or 8-MOP (in words): much higher R17 inactivation efficiency than does 8-MOP
[2]
  mutagenic response in the Ames assay (in words): weak frameshift mutagen in TA1538 at 5 μg/plate in the presence of S9; also recorded: displayed mutation in the TA100 strain, but only in the absence of S9
[3]; TA100 + S9, 5 μg/plate
  revertant colonies per plate: −24
[3]; TA100 + S9, 10 μg/plate
  revertant colonies per plate: −22
[3]; TA100 − S9, 5 μg/plate
  revertant colonies per plate: 292
[3]; TA100 − S9, 10 μg/plate
  revertant colonies per plate: 337
[4]; TA1538 + S9, 5 μg/plate
  revertant colonies per plate: 21
[4]; TA1538 + S9, 10 μg/plate
  revertant colonies per plate: 22
[4]; TA1538 − S9, 5 μg/plate
  revertant colonies per plate: 10
[4]; TA1538 − S9, 10 μg/plate
  revertant colonies per plate: 12
HIV-1; [19]
  HIV Log Kill: 2.1 log

## Cc1oc2c(C)c3oc(=O)cc(C)c3cc2c1CNCCCNCCCCNCCCN [Compound 15, 4′-(14-amino-2,6,11-triaza)tetradecyl-4,5′,8-trimethylpsoralen]
R17 bacteriophage [5]
  R17 inactivation efficiency compared with AMT (in words): more efficient at inactivating R17 than was AMT

## Cc1oc2c(C)c3oc(=O)cc(C)c3cc2c1CNCCCNCCCN [Compound 12, 4′-(9-amino-2,6-diaza)nonyl-4,5′,8-trimethylpsoralen]
R17 bacteriophage [5]
  R17 inactivation efficiency compared with AMT (in words): more efficient at inactivating R17 than was AMT
HIV-1; [20]
  HIV Log Kill: 0.4 log
HIV-1; [21]
  HIV Log Kill: 0.8 log
HIV-1; [22]
  HIV Log Kill: 1.3 log

## Cc1oc2c(C)c3oc(=O)cc(C)c3cc2c1CNCCCCCN [Compound 10, 4′-(7-amino-2-aza)heptyl-4,5′,8-trimethylpsoralen]
R17 bacteriophage [5]
  R17 inactivation efficiency compared with AMT (in words): more efficient at inactivating R17 than was AMT
HIV-1; [20]
  HIV Log Kill: 2.0 log
HIV-1; [21]
  HIV Log Kill: >3.5 log
HIV-1; [22]
  HIV Log Kill: >3.5 log

## Cc1oc2c(C)c3oc(=O)cc(C)c3cc2c1COCCCN [Compound 4, 4′-(5-amino-2-oxa)pentyl-4,5′,8-trimethylpsoralen]
R17 bacteriophage [1]; [23]
  R17 Log Kill: 2.3 log
R17 bacteriophage [1]; 32 μM, starting titer approx. 7.1 logs, 1 minute irradiation = 1.2 J/cm^2 (Table 8)
  R17 Log Kill: 4.3 log
R17 bacteriophage [1]; 64 μM, starting titer approx. 7.1 logs, 1 minute irradiation = 1.2 J/cm^2 (Table 8)
  R17 Log Kill: >6.1 log
[2]
  mutagenic response in the Ames assay (in words): no mutagenicity
[3]; TA100 + S9, 5 μg/plate
  revertant colonies per plate: −10
[3]; TA100 + S9, 10 μg/plate
  revertant colonies per plate: −3
[3]; TA100 − S9, 5 μg/plate
  revertant colonies per plate: −41
[3]; TA100 − S9, 10 μg/plate
  revertant colonies per plate: 3
[4]; TA1538 + S9, 5 μg/plate
  revertant colonies per plate: 7
[4]; TA1538 + S9, 10 μg/plate
  revertant colonies per plate: −2
[4]; TA1538 − S9, 5 μg/plate
  revertant colonies per plate: −2
[4]; TA1538 − S9, 10 μg/plate
  revertant colonies per plate: −2
HIV-1; [24]
  HIV Log Kill: 2.2 log
HIV-1; [19]
  HIV Log Kill: >3.6 log

## Cc1oc2c(C)c3oc(=O)cc(C)c3cc2c1CCN [Compound 3, 4′-(2-aminoethyl)-4,5′,8-trimethylpsoralen]
R17 bacteriophage [1]; 8 μM, starting titer approx. 7.1 logs, 1 minute irradiation = 1.2 J/cm^2 (Table 8)
  R17 Log Kill: 5.6 log
R17 bacteriophage [1]; [6]
  R17 Log Kill: >6.2 log
R17 bacteriophage [1]; [23]
  R17 Log Kill: >6.1 log
R17 bacteriophage [1]; [7]
  R17 Log Kill: >6.2 log
R17 bacteriophage [1]; [8]
  R17 Log Kill: >6.2 log
R17 bacteriophage [1]
  R17 inactivation efficiency compared with AMT or 8-MOP (in words): significantly higher inactivation efficiency than does AMT
[2]
  mutagenic response in the Ames assay (in words): no mutagenicity
[3]; TA100 + S9, 5 μg/plate
  revertant colonies per plate: −19
[3]; TA100 + S9, 10 μg/plate
  revertant colonies per plate: 8
[3]; TA100 − S9, 5 μg/plate
  revertant colonies per plate: 47
[3]; TA100 − S9, 10 μg/plate
  revertant colonies per plate: 47
[4]; TA1538 + S9, 5 μg/plate
  revertant colonies per plate: 1
[4]; TA1538 + S9, 10 μg/plate
  revertant colonies per plate: 9
[4]; TA1538 − S9, 5 μg/plate
  revertant colonies per plate: 0
[4]; TA1538 − S9, 10 μg/plate
  revertant colonies per plate: −6
HIV-1; [24]
  HIV Log Kill: 2.7 log
HIV-1; [19]
  HIV Log Kill: >3.8 log
HIV-1; cell-free HIV, 64 μM of compound or higher for compounds 2 and 3
  HIV inactivation compared with AMT (in words): significantly more active than AMT
